Data from patent US8877748B2, “Heterocyclic fused anthraquinone derivatives, manufacturing method and pharmaceutical composition using thereof” (National Defense Medical Center, priority 2012, dated 2014).

What was measured:
MCF7 = test: NCI one-dose screening, breast cancer MCF7; assay type: cell-based, human; conditions: 10 μM
MDA, -MB-435 = test: NCI one-dose screening, breast cancer MDA, -MB-435; assay type: cell-based, human; conditions: 10 μM; listed under Melanoma
HOP-92 = test: NCI one-dose screening, non-small cell lung cancer HOP-92; assay type: cell-based, human; conditions: 10 μM
ACHN = test: NCI one-dose screening, renal cancer ACHN; assay type: cell-based, human; conditions: 10 μM
LOX IMVI = test: NCI one-dose screening, melanoma LOX IMVI; assay type: cell-based, human; conditions: 10 μM
A549/ATCC = test: NCI one-dose screening, non-small cell lung cancer A549/ATCC; assay type: cell-based, human; conditions: 10 μM
M14 = test: NCI one-dose screening, melanoma M14; assay type: cell-based, human; conditions: 10 μM
TK-10 = test: NCI one-dose screening, renal cancer TK-10; assay type: cell-based, human; conditions: 10 μM
HOP-62 = test: NCI one-dose screening, non-small cell lung cancer HOP-62; assay type: cell-based, human; conditions: 10 μM
EKVX = test: NCI one-dose screening, non-small cell lung cancer EKVX; assay type: cell-based, human; conditions: 10 μM
DU145 = test: NCI one-dose screening, prostate cancer DU145; assay type: cell-based, human; conditions: 10 μM
PC-3 = test: NCI one-dose screening, prostate cancer PC-3; assay type: cell-based, human; conditions: 10 μM
K562cell line = test: NCI one-dose screening, leukemia K562; assay type: cell-based, human; conditions: 10 μM
SNB-19 = test: NCI one-dose screening, CNS cancer SNB-19; assay type: cell-based, human; conditions: 10 μM
UO-31 = test: NCI one-dose screening, renal cancer UO-31; assay type: cell-based, human; conditions: 10 μM
OVCAR-8 = test: NCI one-dose screening, ovarian cancer OVCAR-8; assay type: cell-based, human; conditions: 10 μM
SK-MEL-2 = test: NCI one-dose screening, melanoma SK-MEL-2; assay type: cell-based, human; conditions: 10 μM
human tumor cell lines = test: NCI one-dose screening, Mean / Delta / Range of growth percent over all tested cell lines; assay type: cell-based; conditions: 10 μM; for Growth Percent Delta: delta over all cell lines; for Growth Percent Mean: mean over all cell lines; for Growth Percent Range: range over all cell lines
SF-539 = test: NCI one-dose screening, CNS cancer SF-539; assay type: cell-based, human; conditions: 10 μM
SK-MEL-5 = test: NCI one-dose screening, melanoma SK-MEL-5; assay type: cell-based, human; conditions: 10 μM
MDA-MB-231/ATCC = test: NCI one-dose screening, breast cancer MDA-MB-231/ATCC; assay type: cell-based, human; conditions: 10 μM
NCl/ADR-RES = test: NCI one-dose screening, breast cancer NCl/ADR-RES; assay type: cell-based, human; conditions: 10 μM; listed under Ovarian cancer
786-O = test: NCI one-dose screening, renal cancer 786-O; assay type: cell-based, human; conditions: 10 μM
HCT-116 = test: NCI one-dose screening, colon cancer HCT-116; assay type: cell-based, human; conditions: 10 μM
HT29 = test: NCI one-dose screening, colon cancer HT29; assay type: cell-based, human; conditions: 10 μM
COLO 205 = test: NCI one-dose screening, colon cancer COLO 205; assay type: cell-based, human; conditions: 10 μM
OVCAR-3 = test: NCI one-dose screening, ovarian cancer OVCAR-3; assay type: cell-based, human; conditions: 10 μM
SF-295 = test: NCI one-dose screening, CNS cancer SF-295; assay type: cell-based, human; conditions: 10 μM
HS 578-T = test: NCI one-dose screening, breast cancer HS 578-T; assay type: cell-based, human; conditions: 10 μM; Breast cancer
HL-60, TB = test: NCI one-dose screening, leukemia HL-60, TB; assay type: cell-based, human; conditions: 10 μM
MDA-MB-468 = test: NCI one-dose screening, breast cancer MDA-MB-468; assay type: cell-based, human; conditions: 10 μM
[1] = system: PC-3 prostate cancer cell line; test: SRB assay cell viability, PC-3 prostate cancer cell line; assay type: cell-based, human; conditions: PC-3 prostate cancer cell line, Table II prints no unit, μM printed, read-out: SRB assay: 50% inhibition of cancer cell proliferation of sample concentration (IC50) of PC-3 prostate cancer cell line
SR = test: NCI one-dose screening, leukemia SR; assay type: cell-based, human; conditions: 10 μM
[2] = NCI one-dose screening, renal cancer A489; assay type: cell-based, human; conditions: 10 μM
RXF, 393 = test: NCI one-dose screening, renal cancer RXF, 393; assay type: cell-based, human; conditions: 10 μM
SN12C = test: NCI one-dose screening, renal cancer SN12C; assay type: cell-based, human; conditions: 10 μM
MOLT-4 = test: NCI one-dose screening, leukemia MOLT-4; assay type: cell-based, human; conditions: 10 μM
U251 = test: NCI one-dose screening, CNS cancer U251; assay type: cell-based, human; conditions: 10 μM
BT-549 = test: NCI one-dose screening, breast cancer BT-549; assay type: cell-based, human; conditions: 10 μM
MALME-3M = test: NCI one-dose screening, melanoma MALME-3M; assay type: cell-based, human; conditions: 10 μM
KM12 = test: NCI one-dose screening, colon cancer KM12; assay type: cell-based, human; conditions: 10 μM
PRMI-8226 cell line = test: NCI one-dose screening, leukemia PRMI-8226; assay type: cell-based, human; conditions: 10 μM
UACC-257 = test: NCI one-dose screening, melanoma UACC-257; assay type: cell-based, human; conditions: 10 μM
NCI-H522 = test: NCI one-dose screening, non-small cell lung cancer NCI-H522; assay type: cell-based, human; conditions: 10 μM
IGROV1 = test: NCI one-dose screening, ovarian cancer IGROV1; assay type: cell-based, human; conditions: 10 μM
SK-OV-3 = test: NCI one-dose screening, ovarian cancer SK-OV-3; assay type: cell-based, human; conditions: 10 μM
SK-MEL-28 = test: NCI one-dose screening, melanoma SK-MEL-28; assay type: cell-based, human; conditions: 10 μM
CAKI-1 = test: NCI one-dose screening, renal cancer CAKI-1; assay type: cell-based, human; conditions: 10 μM
HCT-15 = test: NCI one-dose screening, colon cancer HCT-15; assay type: cell-based, human; conditions: 10 μM
T-47D = test: NCI one-dose screening, breast cancer T-47D; assay type: cell-based, human; conditions: 10 μM
NCI-H226 = test: NCI one-dose screening, non-small cell lung cancer NCI-H226; assay type: cell-based, human; conditions: 10 μM
SNB-75 = test: NCI one-dose screening, CNS cancer SNB-75; assay type: cell-based, human; conditions: 10 μM
HCC-2998 = test: NCI one-dose screening, colon cancer HCC-2998; assay type: cell-based, human; conditions: 10 μM
OVCAR-5 = test: NCI one-dose screening, ovarian cancer OVCAR-5; assay type: cell-based, human; conditions: 10 μM
SF-268 = test: NCI one-dose screening, CNS cancer SF-268; assay type: cell-based, human; conditions: 10 μM
NCI-H23 = test: NCI one-dose screening, non-small cell lung cancer NCI-H23; assay type: cell-based, human; conditions: 10 μM
NCI-H460 = test: NCI one-dose screening, non-small cell lung cancer NCI-H460; assay type: cell-based, human; conditions: 10 μM
UACC-62 = test: NCI one-dose screening, melanoma UACC-62; assay type: cell-based, human; conditions: 10 μM

## 4-(2,5-dichloro-phenyl thio)anthra[2,1-c] [1,2,5]thiadiazol oxazole-6,11-dione [C35]
MCF7
  Growth Percent MCF7: 85.16%
MDA, -MB-435
  Growth Percent MDA-MB-435: 105.64%
HOP-92
  Growth Percent HOP-92: 65.12%
ACHN
  Growth Percent ACHN: 88.50%
LOX IMVI
  Growth Percent LOX IMVI: 73.05%
A549/ATCC
  Growth Percent A549/ATCC: 102.75%
M14
  Growth Percent M14: 98.95%
TK-10
  Growth Percent TK-10: 111.76%
HOP-62
  Growth Percent HOP-62: 63.18%
EKVX
  Growth Percent EKVX: 109.03%
DU145
  Growth Percent DU145: 102.44%
PC-3
  Growth Percent PC-3: 80.59%
K562cell line
  Growth Percent K562: 47.80%
SNB-19
  Growth Percent SNB-19: 84.39%
UO-31
  Growth Percent UO-31: 91.54%
OVCAR-8
  Growth Percent OVCAR-8: 85.13%
SK-MEL-2
  Growth Percent SK-MEL-2: 101.38%
Human tumor cell lines
  Growth Percent Delta: 85.86%
  Growth Percent Mean: 87.13%
  Growth Percent Range: 121.42%
SF-539
  Growth Percent SF-539: 88.74%
SK-MEL-5
  Growth Percent SK-MEL-5: 108.82%
MDA-MB-231/ATCC
  Growth Percent MDA-MB-231/ATCC: 82.44%
NCl/ADR-RES
  Growth Percent NCI/ADR-RES: 83.13%
786-O
  Growth Percent 786-0: 67.49%
HCT-116
  Growth Percent HCT-116: 81.94%
HT29
  Growth Percent HT29: 106.27%
COLO 205
  Growth Percent COLO 205: 109.65%
OVCAR-3
  Growth Percent OVCAR-3: 99.41%
SF-295
  Growth Percent SF-295: 78.93%
HS 578-T
  Growth Percent HS 578T: 72.51%
HL-60, TB
  Growth Percent HL-60(TB): 72.72%
MDA-MB-468
  Growth Percent MDA-MB-468: 90.73%
[1]
  IC50: > 15 µM
SR
  Growth Percent SR: 41.15%
[2]
  Growth Percent A498: 87.70%
RXF, 393
  Growth Percent RXF 393: 91.47%
SN12C
  Growth Percent SN12C: 96.65%
MOLT-4
  Growth Percent MOLT-4: 1.27%
U251
  Growth Percent U251: 63.57%
BT-549
  Growth Percent BT-549: 79.66%
MALME-3M
  Growth Percent MALME-3M: 94.30%
KM12
  Growth Percent KM12: 101.18%
PRMI-8226 cell line
  Growth Percent RPMI-8226: 77.16%
UACC-257
  Growth Percent UACC-257: 119.38%
NCI-H522
  Growth Percent NCI-H522: 91.29%
IGROV1
  Growth Percent IGROV1: 78.13%
SK-OV-3
  Growth Percent SK-OV-3: 84.09%
SK-MEL-28
  Growth Percent SK-MEL-28: 122.69%
CAKI-1
  Growth Percent CAKI-1: 108.19%
HCT-15
  Growth Percent HCT-15: 92.85%
T-47D
  Growth Percent T-47D: 63.44%
NCI-H226
  Growth Percent NCI-H226: 112.00%
SNB-75
  Growth Percent SNB-75: 47.00%
HCC-2998
  Growth Percent HCC-2998: 109.37%
OVCAR-5
  Growth Percent OVCAR-5: 108.82%
SF-268
  Growth Percent SF-268: 82.95%
NCI-H23
  Growth Percent NCI-H23: 74.59%
NCI-H460
  Growth Percent NCI-H460: 100.98%
UACC-62
  Growth Percent UACC-62: 94.09%

## O=C1c2ccccc2C(=O)c2c1cc(Sc1ccccc1Br)c1nsnc21 [C27, 4-(2-bromo-phenylthio)anthra[2,1-c] [1,2,5]thiadiazol oxazole-6,11-dione]
MCF7
  Growth Percent MCF7: −6.39%
MDA, -MB-435
  Growth Percent MDA-MB-435: −72.95%
HOP-92
  Growth Percent HOP-92: 37.57%
ACHN
  Growth Percent ACHN: 25.50%
LOX IMVI
  Growth Percent LOX IMVI: −15.34%
A549/ATCC
  Growth Percent A549/ATCC: 95.37%
M14
  Growth Percent M14: 59.45%
TK-10
  Growth Percent TK-10: 76.52%
HOP-62
  Growth Percent HOP-62: 4.88%
EKVX
  Growth Percent EKVX: 77.74%
DU145
  Growth Percent DU145: 50.57%
PC-3
  Growth Percent PC-3: 4.23%
K562cell line
  Growth Percent K562: 29.66%
SNB-19
  Growth Percent SNB-19: 71.38%
UO-31
  Growth Percent UO-31: 56.15%
OVCAR-8
  Growth Percent OVCAR-8: 2.47%
SK-MEL-2
  Growth Percent SK-MEL-2: 35.02%
Human tumor cell lines
  Growth Percent Delta: 109.49%
  Growth Percent Mean: 29.61%
  Growth Percent Range: 200.40%
SF-539
  Growth Percent SF-539: −5.66%
SK-MEL-5
  Growth Percent SK-MEL-5: 46.26%
MDA-MB-231/ATCC
  Growth Percent MDA-MB-231/ATCC: 16.85%
NCl/ADR-RES
  Growth Percent NCI/ADR-RES: −29.94%
786-O
  Growth Percent 786-0: −6.19%
HCT-116
  Growth Percent HCT-116: 16.62%
HT29
  Growth Percent HT29: 96.46%
COLO 205
  Growth Percent COLO 205: 97.36%
OVCAR-3
  Growth Percent OVCAR-3: −65.85%
SF-295
  Growth Percent SF-295: 100.07%
HS 578-T
  Growth Percent HS 578T: 54.25%
HL-60, TB
  Growth Percent HL-60(TB): −43.96%
MDA-MB-468
  Growth Percent MDA-MB-468: −79.88%
[1]
  IC50: 5.76 µM
SR
  Growth Percent SR: 2.94%
[2]
  Growth Percent A498: 24.25%
RXF, 393
  Growth Percent RXF 393: −8.53%
SN12C
  Growth Percent SN12C: 22.56%
MOLT-4
  Growth Percent MOLT-4: 29.67%
U251
  Growth Percent U251: 11.49%
BT-549
  Growth Percent BT-549: 52.19%
MALME-3M
  Growth Percent MALME-3M: 35.27%
KM12
  Growth Percent KM12: 57.85%
PRMI-8226 cell line
  Growth Percent RPMI-8226: 9.40%
UACC-257
  Growth Percent UACC-257: 4.75%
NCI-H522
  Growth Percent NCI-H522: 30.77%
IGROV1
  Growth Percent IGROV1: 27.94%
SK-OV-3
  Growth Percent SK-OV-3: 66.68%
SK-MEL-28
  Growth Percent SK-MEL-28: 64.65%
CAKI-1
  Growth Percent CAKI-1: 29.67%
HCT-15
  Growth Percent HCT-15: 39.74%
T-47D
  Growth Percent T-47D: −33.05%
NCI-H226
  Growth Percent NCI-H226: 92.07%
SNB-75
  Growth Percent SNB-75: 47.20%
HCC-2998
  Growth Percent HCC-2998: 78.44%
OVCAR-5
  Growth Percent OVCAR-5: 120.52%
SF-268
  Growth Percent SF-268: −5.11%
NCI-H23
  Growth Percent NCI-H23: 18.02%
NCI-H460
  Growth Percent NCI-H460: 58.24%
UACC-62
  Growth Percent UACC-62: 39.58%
